Source: PubChem BioAssay AID248 (DTP/NCI, 2004)
Where “and” joins values, the source holds several entries; their conditions need not be identical. Equal entries are not always repeated. Inconclusive results and toxic doses are left out. Rule as the data show it: active = T/C of 150% or more; inactive = T/C below 125%.

System: L1210 leukemia ip in BDF1 mice, survival T/C
Experiment: NCI In Vivo Anticancer Drug Screen. Data for tumor model L1210 Leukemia (intraperitoneal) in B6D2F1 (BDF1) mice
Conditions: endpoint: mean survival time, higher = longer survival
How it was run: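 Transplantable tumor model; survival measured in treated vs vehicle control mice. Value = treated/control.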

Measured: T/C

Cc1ncc(CO)c(C2NOCc3ncsc32)c1O (stereo unspecified)
inactive: dose: 6.25 mg/kg/injection, schedule: Q01DX009 (ip), vehicle: saline 89 % of control | dose: 6.25 mg/kg/injection, schedule: Q04DX003 (ip), vehicle: saline 102 % of control | dose: 12.5 mg/kg/injection, schedule: Q01DX001 (ip), vehicle: saline 101 % of control | dose: 12.5 mg/kg/injection, schedule: Q01DX009 (ip), vehicle: saline 97 % of control | dose: 12.5 mg/kg/injection, schedule: Q04DX003 (ip), vehicle: saline 106 % of control | dose: 25.0 mg/kg/injection, schedule: Q01DX001 (ip), vehicle: saline 102 % of control | dose: 25.0 mg/kg/injection, schedule: Q04DX003 (ip), vehicle: saline 93 % of control

COC(=O)c1c[nH]c2cc(OC(C)C)c(OC(C)C)cc2c1=O
inactive: dose: 100.0 mg/kg/injection, schedule: Q01DX001 (ip), vehicle: saline with Tween-80 96 % of control | dose: 200.0 mg/kg/injection, schedule: Q01DX001 (ip), vehicle: saline with Tween-80 91 % of control | dose: 400.0 mg/kg/injection, schedule: Q01DX001 (ip), vehicle: saline with Tween-80 100 % of control

ClCCCN1c2ccccc2CCc2ccccc21
inactive: dose: 100.0 mg/kg/injection, schedule: Q04DX003 (ip), vehicle: acetone 100 % of control | dose: 200.0 mg/kg/injection, schedule: Q04DX003 (ip), vehicle: acetone 100 % of control | dose: 400.0 mg/kg/injection, schedule: Q04DX003 (ip), vehicle: acetone 103 % of control

C[N+]1(CCl)CCOCC1
inactive: dose: 1.74 mg/kg/injection, schedule: Q01DX009 (ip), vehicle: saline 104 % of control | dose: 2.6 mg/kg/injection, schedule: Q01DX009 (ip), vehicle: saline 104 % of control | dose: 4.0 mg/kg/injection, schedule: Q01DX001 (ip), vehicle: saline 105 % of control | dose: 4.0 mg/kg/injection, schedule: Q01DX009 (ip), vehicle: saline 94 % of control | dose: 4.0 mg/kg/injection, schedule: Q04DX003 (ip), vehicle: saline 100 % of control | dose: 4.0 mg/kg/injection, schedule: Q08DX002 (ip), vehicle: saline 105 % of control | dose: 6.0 mg/kg/injection, schedule: Q01DX001 (ip), vehicle: saline 102 % of control | dose: 6.0 mg/kg/injection, schedule: Q01DX009 (ip), vehicle: saline 102 % of control | dose: 6.0 mg/kg/injection, schedule: Q04DX003 (ip), vehicle: saline 98 % of control | dose: 6.0 mg/kg/injection, schedule: Q08DX002 (ip), vehicle: saline 111 % of control | dose: 9.0 mg/kg/injection, schedule: Q01DX009 (ip), vehicle: saline 100 % of control | dose: 10.0 mg/kg/injection, schedule: Q01DX001 (ip), vehicle: saline 102 % of control | dose: 10.0 mg/kg/injection, schedule: Q04DX003 (ip), vehicle: saline 105 % of control | dose: 10.0 mg/kg/injection, schedule: Q08DX002 (ip), vehicle: saline 104 % of control | dose: 14.0 mg/kg/injection, schedule: Q01DX001 (ip), vehicle: saline 104 % of control | dose: 14.0 mg/kg/injection, schedule: Q04DX003 (ip), vehicle: saline 102 % of control | dose: 14.0 mg/kg/injection, schedule: Q08DX002 (ip), vehicle: saline 107 % of control | dose: 21.0 mg/kg/injection, schedule: Q01DX001 (ip), vehicle: saline 102 % of control | dose: 21.0 mg/kg/injection, schedule: Q04DX003 (ip), vehicle: saline 100 % of control | dose: 21.0 mg/kg/injection, schedule: Q08DX002 (ip), vehicle: saline 100 % of control | dose: 75.0 mg/kg/injection, schedule: Q01DX001 (ip), vehicle: saline 98 % of control | dose: 150.0 mg/kg/injection, schedule: Q01DX001 (ip), vehicle: saline 107 % of control

COc1cccc(/C=N/NC(=O)C[n+]2ccccc2)c1OC
inactive: dose: 25.0 mg/kg/injection, schedule: Q01DX009 (ip), vehicle: saline with Tween-80 98 % of control | dose: 50.0 mg/kg/injection, schedule: Q01DX009 (ip), vehicle: saline with Tween-80 106 % of control | dose: 100.0 mg/kg/injection, schedule: Q04DX003 (ip), vehicle: saline with Tween-80 113 % of control

CN(C)CCCN1CCC2(CCCC(C(F)(F)F)C2)CC1 (stereo unspecified)
inactive: dose: 50.0 mg/kg/injection, schedule: Q01DX001 (ip), vehicle: saline 104 % of control | dose: 100.0 mg/kg/injection, schedule: Q01DX001 (ip), vehicle: saline 101 % of control | dose: 200.0 mg/kg/injection, schedule: Q01DX001 (ip), vehicle: saline 104 % of control

CCCCCCC(=O)NC1=C(N2CC2)C(=O)C(NC(=O)CCCCCC)=C(N2CC2)C1=O
inactive: dose: 25.0 mg/kg/injection, schedule: Q01DX009 (ip), vehicle: saline 110 % of control | dose: 45.0 mg/kg/injection, schedule: Q01DX009 (ip), vehicle: other 124 % of control | dose: 50.0 mg/kg/injection, schedule: Q01DX009 (ip), vehicle: saline 122 % of control | dose: 51.0 mg/kg/injection, schedule: Q01DX Z (ip), vehicle: carboxymethylcellulose (CMC) 124 % of control | dose: 51.0 mg/kg/injection, schedule: Q01DX Z (ip), vehicle: methylcellulose (MC) 107 % of control | dose: 65.0 mg/kg/injection, schedule: Q01DX009 (ip), vehicle: other 118 % of control | dose: 66.0 mg/kg/injection, schedule: Q01DX009 (ip), vehicle: Klucel (hydroxypropylcellulose) (HPC) 113 % of control | dose: 76.0 mg/kg/injection, schedule: Q01DX Z (ip), vehicle: methylcellulose (MC) 96 % of control | dose: 100.0 mg/kg/injection, schedule: Q01DX001 (ip), vehicle: other 96 % of control | dose: 100.0 mg/kg/injection, schedule: Q01DX009 (ip), vehicle: Klucel (hydroxypropylcellulose) (HPC) 101 % of control | dose: 100.0 mg/kg/injection, schedule: Q01DX009 (ip), vehicle: saline 123 % of control | dose: 100.0 mg/kg/injection, schedule: Q04DX003 (ip), vehicle: Klucel (hydroxypropylcellulose) (HPC) 111 % of control | dose: 100.0 mg/kg/injection, schedule: Q04DX003 (ip), vehicle: saline 103 % of control | dose: 115.0 mg/kg/injection, schedule: Q01DX Z (ip), vehicle: carboxymethylcellulose (CMC) 120 % of control | dose: 150.0 mg/kg/injection, schedule: Q01DX009 (ip), vehicle: Klucel (hydroxypropylcellulose) (HPC) 97 % of control and 99 % of control | dose: 172.5 mg/kg/injection, schedule: Q01DX Z (ip), vehicle: carboxymethylcellulose (CMC) 114 % of control | dose: 200.0 mg/kg/injection, schedule: Q01DX001 (ip), vehicle: other 108 % of control | dose: 200.0 mg/kg/injection, schedule: Q01DX009 (ip), vehicle: other 100 % of control | dose: 200.0 mg/kg/injection, schedule: Q01DX009 (ip), vehicle: saline 94 % of control | dose: 200.0 mg/kg/injection, schedule: Q04DX003 (ip), vehicle: saline 113 % of control | dose: 264.0 mg/kg/injection, schedule: Q04DX003 (ip), vehicle: Klucel (hydroxypropylcellulose) (HPC) 114 % of control | dose: 264.0 mg/kg/injection, schedule: Q04DX003 (ip), vehicle: other 111 % of control | dose: 400.0 mg/kg/injection, schedule: Q01DX001 (ip), vehicle: other 110 % of control | dose: 400.0 mg/kg/injection, schedule: Q04DX003 (ip), vehicle: Klucel (hydroxypropylcellulose) (HPC) 118 % of control

CC1CCC2(OC1)OC1CC3C4CCC5CC(=O)CCC5(C)C4CCC3(C)C1C2C (stereo unspecified)
inactive: dose: 100.0 mg/kg/injection, schedule: Q04DX002 (ip), vehicle: Klucel (hydroxypropylcellulose) (HPC) 102 % of control | dose: 200.0 mg/kg/injection, schedule: Q04DX002 (ip), vehicle: Klucel (hydroxypropylcellulose) (HPC) 105 % of control | dose: 400.0 mg/kg/injection, schedule: Q04DX002 (ip), vehicle: Klucel (hydroxypropylcellulose) (HPC) 94 % of control

O=C(CCC(=O)NO)NO
inactive: dose: 100.0 mg/kg/injection, schedule: Q04DX002 (ip), vehicle: saline 110 % of control | dose: 200.0 mg/kg/injection, schedule: Q04DX002 (ip), vehicle: saline 103 % of control | dose: 400.0 mg/kg/injection, schedule: Q04DX002 (ip), vehicle: saline 97 % of control
